Data reported in ChEMBL document CHEMBL1201862, “PubChem BioAssay data set” (2004).
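Where inhibition never reached the appropriate level, the endpoint shown equals the highest concentration tested. Otherwise, values were interpolated linearly from a five-concentration, 48-hour dose response in 96-well plates. Abbreviation: GI50, concentration required for 50% inhibition of growth.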 Activity calls are given as the source filed them. Cut-off read from the data, not from the text of the source: active = GI50 up to about 1.1 µM and inactive = higher.

Columns and labels:
Experiment in all cases: growth of human tumour cells (NCI), 48 h
CCRF-CEM = test system: CCRF-CEM
EKVX = test system: EKVX
SK-MEL-28 = test system: SK-MEL-28
SNB-19 = test system: SNB-19
NCI/ADR-RES = test system: NCI/ADR-RES
Malme-3M = test system: Malme-3M
NCI-H522 = test system: NCI-H522
OVCAR-8 = test system: OVCAR-8
SK-OV-3 = test system: SK-OV-3
OVCAR-5 = test system: OVCAR-5
SF-268 = test system: SF-268
U-251 = test system: U-251
A549 = test system: A549
T47D = test system: T47D
NCI-H226 = test system: NCI-H226
MOLT-4 = test system: MOLT-4
SF-539 = test system: SF-539
HCT-15 = test system: HCT-15
HL-60 = test system: HL-60

Measured: GI50

CCOC(=O)c1c(N2CCCC2)[nH]c(=O)c(C(c2ccc(OC)cc2)c2c(O)c(C(=O)OCC)c(N3CCCC3)[nH]c2=O)c1O
inactive: CCRF-CEM > 100 µM | EKVX 44.8 µM | SK-MEL-28 > 100 µM | SNB-19 > 100 µM | NCI/ADR-RES > 100 µM | Malme-3M > 100 µM | NCI-H522 > 100 µM | OVCAR-8 86.1 µM | SK-OV-3 > 100 µM | OVCAR-5 52.7 µM | SF-268 49.5 µM | U-251 48.9 µM | A549 > 100 µM | T47D > 100 µM | NCI-H226 > 100 µM | MOLT-4 > 100 µM | SF-539 > 100 µM
> 100 µM: HCT-15

Cc1nn(C(=O)c2ccncc2)c2c1C(c1ccccc1[N+](=O)[O-])SC(=N)N2 (centres undefined)
> 10 µM: HCT-15
inactive: CCRF-CEM 8.24 µM | EKVX > 10 µM | SK-MEL-28 > 10 µM | SNB-19 > 10 µM | NCI/ADR-RES > 10 µM | HL-60 > 10 µM | Malme-3M > 10 µM | OVCAR-8 > 10 µM | OVCAR-5 > 10 µM | SF-268 > 10 µM | A549 > 10 µM | T47D > 10 µM | NCI-H226 > 10 µM | MOLT-4 > 10 µM | SF-539 > 10 µM

CN1C(=O)c2cccc3cc([N+](=O)[O-])cc(c23)C1=O
> 10 µM: HCT-15
inactive: CCRF-CEM > 10 µM | SK-MEL-28 > 10 µM | SNB-19 > 10 µM | NCI/ADR-RES > 10 µM | HL-60 > 10 µM | Malme-3M > 10 µM | NCI-H522 5.65 µM | OVCAR-8 > 10 µM | SK-OV-3 > 10 µM | OVCAR-5 > 10 µM | SF-268 9.25 µM | U-251 > 10 µM | A549 > 10 µM | T47D > 10 µM | MOLT-4 5.04 µM | SF-539 > 10 µM

CC1=C(C(=O)NCCCN(CCO)CCO)CC(C(=O)NCCCN(CCO)CCO)=C(C)N1
> 100 µM: HCT-15
inactive: CCRF-CEM 19.1 µM | EKVX > 100 µM | SNB-19 66.4 µM | NCI/ADR-RES > 100 µM | HL-60 > 100 µM | NCI-H522 98.9 µM | OVCAR-8 > 100 µM | SK-OV-3 > 100 µM | OVCAR-5 > 100 µM | SF-268 34.8 µM | U-251 > 100 µM | A549 > 100 µM | T47D 62.1 µM | NCI-H226 > 100 µM | MOLT-4 > 100 µM | SF-539 > 100 µM

COc1ccc(N2C(=O)C3c4[nH]c5ccc(C)cc5c4C4CCC(c5ccccc5)CC4C3C2=O)cc1 (centres undefined)
inactive: CCRF-CEM 4.9 µM | EKVX > 64.3 µM | SK-MEL-28 > 100 µM | SNB-19 14.3 µM | NCI/ADR-RES > 100 µM | HL-60 12.8 µM | Malme-3M > 100 µM | NCI-H522 > 100 µM | OVCAR-8 22.5 µM | SK-OV-3 18.9 µM | OVCAR-5 > 100 µM | SF-268 11.8 µM | U-251 12.9 µM | A549 > 89.1 µM | T47D > 100 µM | NCI-H226 > 100 µM | MOLT-4 41.2 µM
> 75.9 µM: HCT-15

CN1C/C(=C\c2cccs2)C2=NN(C)C(c3cccs3)C2C1 (centres undefined)
> 100 µM: HCT-15
inactive: CCRF-CEM 72.8 µM | EKVX > 100 µM | SK-MEL-28 > 100 µM | SNB-19 > 100 µM | NCI/ADR-RES > 100 µM | HL-60 3.05 µM | Malme-3M > 100 µM | NCI-H522 81.3 µM | OVCAR-8 > 100 µM | SK-OV-3 > 100 µM | OVCAR-5 > 100 µM | SF-268 > 100 µM | U-251 22.8 µM | A549 89.3 µM | T47D 44.4 µM | NCI-H226 > 100 µM | MOLT-4 28.8 µM

Cc1ccc(S(=O)(=O)c2[nH]cc(/C(=C\C3CCCCC3)[N+](=O)[O-])c2C2CCCCC2)cc1
inactive: SNB-19 1.75 µM | A549 1.71 µM
active: CCRF-CEM 0.272 µM | EKVX 0.354 µM | SK-MEL-28 0.802 µM | NCI/ADR-RES 0.426 µM | Malme-3M 0.564 µM | NCI-H522 0.208 µM | OVCAR-8 0.368 µM | OVCAR-5 0.822 µM | SF-268 0.414 µM | U-251 0.653 µM | T47D 0.303 µM | NCI-H226 0.832 µM | MOLT-4 0.324 µM | SF-539 0.462 µM
0.199 µM: HCT-15

CC(=O)N/N=C1/CC[C@@]2(C)C(=CC[C@H]3C4CCC(C(C)CCCC(C)C)[C@@]4(C)CCC32)C1(C)C (some centres undefined)
inactive: CCRF-CEM 13.8 µM | EKVX > 100 µM | SK-MEL-28 > 100 µM | SNB-19 75.3 µM | NCI/ADR-RES 47.8 µM | HL-60 42 µM | Malme-3M > 100 µM | NCI-H522 58.9 µM | OVCAR-8 51.1 µM | SK-OV-3 > 100 µM | OVCAR-5 > 100 µM | SF-268 63 µM | U-251 75.5 µM | A549 31.1 µM | T47D 70.5 µM | NCI-H226 > 100 µM | MOLT-4 11 µM
40.6 µM: HCT-15
